Source: the NIST ThermoML archive (doi:10.1007/s10765-009-0593-3)
Numbers after ± are expanded uncertainties.

Assay: xn = mol fraction of the nth substance listed
Conditions: 101 kPa, Liquid; for speed of sound: Pulse-echo method

CCCOCC(C)OCC(C)O (stereo not given) [1-(1-methyl-2-propoxyethoxy)-2-propanol] + CCCCN
Conditions	mass density, 288.15 K [kg/m3]	mass density, 293.15 K [kg/m3]	mass density, 298.15 K [kg/m3]	mass density, 303.15 K [kg/m3]	mass density, 308.15 K [kg/m3]	speed of sound, 288.15 K [m/s]	speed of sound, 293.15 K [m/s]	speed of sound, 298.15 K [m/s]	speed of sound, 303.15 K [m/s]	speed of sound, 308.15 K [m/s]
x1 = 0.1119	781.657 ± 0.5	776.972 ± 0.51	772.263 ± 0.51	767.527 ± 0.52	762.757 ± 0.53	1299.1 ± 0.83	1277.8 ± 0.82	1256.7 ± 0.82	1235.5 ± 0.81	1214.2 ± 0.81
x1 = 0.1625	797.6 ± 0.48	792.951 ± 0.48	788.269 ± 0.49	783.562 ± 0.5	778.83 ± 0.5	1301.8 ± 0.83	1281 ± 0.83	1260.2 ± 0.82	1239.5 ± 0.81	1218.7 ± 0.81
x1 = 0.2153	812.62 ± 0.45	807.989 ± 0.46	803.334 ± 0.47	798.647 ± 0.47	793.946 ± 0.48	1304.3 ± 0.83	1283.9 ± 0.83	1263.4 ± 0.82	1243.2 ± 0.81	1222.8 ± 0.81
x1 = 0.2414	819.423 ± 0.44	814.802 ± 0.45	810.159 ± 0.46	805.481 ± 0.46	800.782 ± 0.47	1305.4 ± 0.83	1285.2 ± 0.83	1264.8 ± 0.82	1244.8 ± 0.81	1224.6 ± 0.81
x1 = 0.3043	834.258 ± 0.42	829.657 ± 0.43	825.032 ± 0.43	820.381 ± 0.44	815.702 ± 0.45	1307.7 ± 0.83	1287.9 ± 0.83	1267.8 ± 0.82	1248.3 ± 0.81	1228.4 ± 0.81
x1 = 0.35	843.808 ± 0.41	839.22 ± 0.41	834.611 ± 0.42	829.962 ± 0.43	825.299 ± 0.43	1309.1 ± 0.83	1289.5 ± 0.83	1269.7 ± 0.82	1250.3 ± 0.82	1230.7 ± 0.81
x1 = 0.4162	856.225 ± 0.39	851.642 ± 0.39	847.04 ± 0.4	842.409 ± 0.41	837.754 ± 0.41	1310.7 ± 0.83	1291.4 ± 0.83	1271.9 ± 0.82	1252.8 ± 0.82	1233.4 ± 0.81
x1 = 0.4519	862.336 ± 0.38	857.764 ± 0.38	853.179 ± 0.39	848.559 ± 0.4	843.907 ± 0.41	1311.3 ± 0.83	1292.2 ± 0.83	1272.8 ± 0.82	1253.8 ± 0.82	1234.6 ± 0.81
x1 = 0.4946	869.26 ± 0.37	864.701 ± 0.37	860.118 ± 0.38	855.511 ± 0.39	850.865 ± 0.39	1311.9 ± 0.83	1292.9 ± 0.83	1273.7 ± 0.82	1254.8 ± 0.82	1235.7 ± 0.81
x1 = 0.547	877.184 ± 0.35	872.638 ± 0.36	868.071 ± 0.37	863.48 ± 0.38	858.867 ± 0.38	1312.4 ± 0.83	1293.5 ± 0.83	1274.5 ± 0.82	1255.8 ± 0.82	1236.8 ± 0.81
x1 = 0.5938	883.779 ± 0.34	879.25 ± 0.35	874.697 ± 0.36	870.123 ± 0.37	865.527 ± 0.37	1312.6 ± 0.83	1293.8 ± 0.83	1275 ± 0.82	1256.3 ± 0.82	1237.5 ± 0.81
x1 = 0.6567	891.947 ± 0.33	887.44 ± 0.34	882.917 ± 0.35	878.364 ± 0.35	873.793 ± 0.36	1312.5 ± 0.83	1293.9 ± 0.83	1275.2 ± 0.82	1256.6 ± 0.82	1237.9 ± 0.81
x1 = 0.6997	897.047 ± 0.33	892.555 ± 0.33	888.041 ± 0.34	883.505 ± 0.35	878.95 ± 0.35	1312.2 ± 0.83	1293.7 ± 0.83	1275.1 ± 0.82	1256.5 ± 0.82	1238 ± 0.81
x1 = 0.7665	904.096 ± 0.32	899.635 ± 0.32	895.15 ± 0.33	890.644 ± 0.34	886.119 ± 0.34	1311.5 ± 0.83	1293 ± 0.83	1274.6 ± 0.82	1256.1 ± 0.82	1237.7 ± 0.81
x1 = 0.8068	907.864 ± 0.31	903.41 ± 0.32	898.94 ± 0.32	894.449 ± 0.33	889.942 ± 0.34	1310.8 ± 0.83	1292.3 ± 0.83	1274.1 ± 0.82	1255.7 ± 0.82	1237.4 ± 0.81
x1 = 0.8466	911.283 ± 0.3	906.844 ± 0.31	902.376 ± 0.32	897.903 ± 0.32	893.412 ± 0.33	1310 ± 0.83	1291.6 ± 0.83	1273.4 ± 0.82	1255.2 ± 0.82	1236.9 ± 0.81
x1 = 0.9038	915.886 ± 0.3	911.457 ± 0.3	906.999 ± 0.31	902.546 ± 0.32	898.065 ± 0.32	1308.6 ± 0.83	1290.3 ± 0.83	1272.1 ± 0.82	1254.2 ± 0.82	1236.1 ± 0.81
x1 = 0.9528	919.898 ± 0.29	915.486 ± 0.3	911.061 ± 0.3	906.607 ± 0.31	902.137 ± 0.32	1307.2 ± 0.83	1288.9 ± 0.83	1270.9 ± 0.82	1253.1 ± 0.82	1235.2 ± 0.81

CCCOCC(C)OCC(C)O (stereo not given) [1-(1-methyl-2-propoxyethoxy)-2-propanol] + CCCCN(CCCC)CCCC
Conditions	mass density, 288.15 K [kg/m3]	mass density, 293.15 K [kg/m3]	mass density, 298.15 K [kg/m3]	mass density, 303.15 K [kg/m3]	mass density, 308.15 K [kg/m3]	speed of sound, 288.15 K [m/s]	speed of sound, 293.15 K [m/s]	speed of sound, 298.15 K [m/s]	speed of sound, 303.15 K [m/s]	speed of sound, 308.15 K [m/s]
x1 = 0.1122	794.307 ± 0.48	790.425 ± 0.48	786.535 ± 0.49	782.639 ± 0.49	778.737 ± 0.5	1282.3 ± 0.82	1263 ± 0.82	1243.9 ± 0.81	1225 ± 0.81	1206.3 ± 0.8
x1 = 0.1665	800.621 ± 0.47	796.684 ± 0.47	792.738 ± 0.48	788.781 ± 0.49	784.827 ± 0.49	1282.3 ± 0.83	1262.8 ± 0.82	1243.7 ± 0.81	1224.8 ± 0.81	1206.1 ± 0.8
x1 = 0.2084	805.602 ± 0.46	801.628 ± 0.47	797.652 ± 0.47	793.661 ± 0.48	789.668 ± 0.48	1282.3 ± 0.83	1262.9 ± 0.82	1243.8 ± 0.81	1224.9 ± 0.81	1206.2 ± 0.8
x1 = 0.2538	811.153 ± 0.45	807.13 ± 0.46	803.115 ± 0.46	799.083 ± 0.47	795.057 ± 0.48	1282.4 ± 0.82	1263.2 ± 0.82	1244.1 ± 0.81	1225.3 ± 0.81	1206.5 ± 0.8
x1 = 0.313	818.607 ± 0.44	814.554 ± 0.45	810.479 ± 0.45	806.404 ± 0.46	802.329 ± 0.47	1282.5 ± 0.82	1264 ± 0.82	1244.9 ± 0.81	1226.1 ± 0.81	1207.4 ± 0.8
x1 = 0.3558	824.155 ± 0.43	820.06 ± 0.44	815.967 ± 0.45	811.844 ± 0.45	807.734 ± 0.46	1282.8 ± 0.82	1264.8 ± 0.82	1245.7 ± 0.81	1227 ± 0.81	1208.3 ± 0.8
x1 = 0.4148	832.006 ± 0.42	827.869 ± 0.43	823.733 ± 0.43	819.576 ± 0.44	815.399 ± 0.45	1283.3 ± 0.82	1266.2 ± 0.82	1247.2 ± 0.81	1228.5 ± 0.81	1209.8 ± 0.8
x1 = 0.4472	836.41 ± 0.41	832.261 ± 0.42	828.099 ± 0.43	823.913 ± 0.43	819.704 ± 0.44	1283.7 ± 0.82	1267.1 ± 0.82	1248.1 ± 0.81	1229.4 ± 0.81	1210.8 ± 0.8
x1 = 0.5008	843.844 ± 0.4	839.656 ± 0.41	835.454 ± 0.42	831.251 ± 0.42	826.995 ± 0.43	1284.5 ± 0.82	1268.8 ± 0.82	1249.8 ± 0.81	1231.2 ± 0.81	1212.6 ± 0.8
x1 = 0.5451	850.136 ± 0.4	845.938 ± 0.4	841.706 ± 0.41	837.473 ± 0.41	833.167 ± 0.42	1285.5 ± 0.82	1270.3 ± 0.82	1251.5 ± 0.82	1232.8 ± 0.81	1214.3 ± 0.8
x1 = 0.6077	859.289 ± 0.38	855.06 ± 0.39	850.786 ± 0.39	846.555 ± 0.4	842.165 ± 0.41	1287.2 ± 0.82	1272.8 ± 0.82	1254 ± 0.82	1235.4 ± 0.81	1217 ± 0.8
x1 = 0.6566	866.709 ± 0.37	862.46 ± 0.38	858.15 ± 0.38	853.912 ± 0.39	849.462 ± 0.4	1288.9 ± 0.83	1274.9 ± 0.82	1256.2 ± 0.82	1237.7 ± 0.81	1219.3 ± 0.81
x1 = 0.7143	875.786 ± 0.36	871.507 ± 0.36	867.175 ± 0.37	862.905 ± 0.38	858.43 ± 0.38	1291.3 ± 0.83	1277.5 ± 0.82	1258.8 ± 0.82	1240.4 ± 0.81	1222.1 ± 0.81
x1 = 0.7514	881.851 ± 0.35	877.544 ± 0.35	873.195 ± 0.36	868.91 ± 0.37	864.43 ± 0.37	1293.2 ± 0.83	1279.3 ± 0.82	1260.7 ± 0.82	1242.3 ± 0.81	1224.1 ± 0.81
x1 = 0.8016	890.298 ± 0.34	885.967 ± 0.34	881.597 ± 0.35	877.285 ± 0.36	872.799 ± 0.36	1296.1 ± 0.83	1281.7 ± 0.82	1263.2 ± 0.82	1245 ± 0.81	1226.8 ± 0.81
x1 = 0.856	897.74 ± 0.33	895.367 ± 0.33	890.981 ± 0.34	886.63 ± 0.34	882.174 ± 0.35	1299.9 ± 0.83	1284.4 ± 0.82	1266.1 ± 0.82	1247.9 ± 0.81	1230 ± 0.81
x1 = 0.904	908.188 ± 0.31	903.8 ± 0.32	899.4 ± 0.32	894.989 ± 0.33	890.566 ± 0.34	1303.7 ± 0.83	1286.8 ± 0.83	1268.7 ± 0.82	1250.6 ± 0.81	1232.8 ± 0.81
x1 = 0.9553	917.078 ± 0.3	912.677 ± 0.3	908.256 ± 0.31	903.826 ± 0.32	899.408 ± 0.32	1308.3 ± 0.83	1289.5 ± 0.83	1271.5 ± 0.82	1253.5 ± 0.82	1235.9 ± 0.81
